Legend:
[1] = system: pre-45s rRNA transcription in MJDCAG78-expressing HEK293 cells; assay: Real-time PCR of pre-45s rRNA in MJDCAG78-expressing HEK293 cells; format: cell-based; details: MJDCAG78-expressing HEK293 cells (FIG. 5D)
Source text: (§1) FIG. 5. Depicts the distinct stress responses induced by toxic expanded CAG-RNA and polyQ protein which can be differentiated by pre-rRNA and GRP78/BiP gene expression respectively in transgenic Drosophila and mammalian cell models. […] “dpe” denotes days post eclosion. The CAG repeat sequence of the DsRedCAG constructs is located in the 3′ UTR, thus expanded CAG RNA is produced but not expanded polyglutamine protein. Only RNA toxicity is observed in the DsRedCAG model. […] The MJDCAG constructs express both expanded CAG RNA and polyglutamine protein. […] The MJDCAA/G construct only generates polyQ protein toxicity because the continuity of the expanded CAG sequence is disrupted which disrupts RNA toxicity. (D) Real-time PCR analysis of the effects of RNA and protein toxicity peptidylic inhibitors on pre-45s rRNA and GRP78/BiP expression in an MJD disease cell model. HEK293 cells expressing a polynucleotide encoding MJDCAG78 reduced pre-45s rRNA transcription and induced GRP78/BiP expression. […] Cells expressing a polynucleotide encoding MJDCAG27 served as a control. “SCR” and “P3MT5” represent scrambled QBP1 and mutant P3 peptides respectively.

[2] = system: GRP78/BiP expression in MJDCAG78-expressing HEK293 cells; assay: Real-time PCR of GRP78/BiP in MJDCAG78-expressing HEK293 cells; format: cell-based; details: MJDCAG78-expressing HEK293 cells (FIG. 5D)
Source text: as §1

[3] = system: Drosophila polyQ disease model; assay: Pseudopupil assay in transgenic Drosophila polyQ model (RNA and protein toxicities); format: in vivo; details: third instar larvae incubated with peptides (100 μM each); pseudopupil assay on 0-3 day-old adult flies
Experimental: FIG. 7. (A) A co-treatment approach to target RNA and protein toxicities of polyQ diseases. (B) The combined effect of P3 and QBP1 peptides on suppressing neurodegeneration in a transgenic Drosophila polyQ model. Third instar larvae were incubated with corresponding peptides (100 μM each). Pseudopupil assay was performed on 0-3 day-old adult flies. The average number of rhabdomeres per ommatidium (single eye unit of the adult flies) is shown at the bottom left hand corner of each image. (C) Statistical analysis of (B). “WT” and “MT5” represent wildtype and mutant P3 peptides respectively. “SCR” denotes a scrambled sequence of QBP1. * represents P<0.05; ** represents P<0.01. Error bars represent standard deviation. Because both expanded CAG RNA and polyQ protein contribute to neurotoxicity, a therapeutic strategy that simultaneously targets these toxic species would be ideal for treatment. A similar combined therapeutic approach was recently reported in cancer treatment (Suzuki, et al., 2013), indicating its therapeutic potential of this strategy. We have performed a pilot study to simultaneously target both the RNA and protein toxicities using a well-studied protein toxicity peptide QBP1 (Nagai, et al., 2000) and P3, and has obtained satisfactory suppression (FIG. 7A).

polyQ protein toxicity = details: reported in literature, in vitro and in vivo; cited from earlier work
[4] = system: interaction between purified NCL and expanded CAG RNA (NCL: CAG78 RNA complex); assay: Competition assay: GST-NCL / CAG78 RNA pull-down on glutathione beads, bound RNA by RT-PCR; format: binding
Source text: Purified GST-nucleolin (GST-NCL) protein was purchased from Abnova (H00004691-P01), and the control GST protein was expressed and purified as previously described (Tsoi H, et al. 2011). The CAG78 (SEQ ID NO:18) and CUG78 (SEQ ID NOP:19) RNAs were synthesized from a pcDNA3.1-MJDCAG78 PCR product, using the MEGAscript kit (Ambion) with the following primer pairs: T7CAGF, 5′-TAA AC GACTCACTATAGGGAGAAGAAGCCTACTTTGAAAAA-3′ (SEQ ID NO:20) and CAGR, 5′-CTG TCC TGA TAG GTC CCG-3′ (SEQ ID NO:21) for CAG78 (SEQ ID NO:18); and T7CUGF, 5′-TAATACGACTCACTATAGGGAGAAGACACGACTATCCAGGGC-3′ (SEQ ID NO:22) and CUGR, 5′-CTT CGG ATG AAA CTT TTT-3′ (SEQ ID NO:23) for CUG78 (SEQ ID NO:19). To perform in vitro protein-RNA interaction, 50 ng of GST protein was first captured by glutathione Sepharose beads (GE Healthcare). The purified in vitro transcribed RNA (10 pmol) was allowed to bind with GST-coated glutathione Sepharose beads and the mixture was incubated at 4° C. overnight in a 500-μL reaction volume. Before elution, the protein-RNA mixture was washed three times with 1 mL of binding buffer [20 mM Hepes, pH 7.4, 150 mM NaCl, 5 mM MgCl2, 0.5% Nonidet P-40, 40 units RNAsin (Promega), and 1 mg/mL yeast tRNA (Sigma)]. Bound RNA was then extracted for RT-PCR as described in Tsoi H, et al. 2011.
These peptides were then tested for the ability to interact with expanded CAG RNA. […]

DsRedCAG100 RNA toxicity = assay: Pseudopupil assay in DsRedCAG100 Drosophila fed with peptide; format: in vivo; details: larvae fed with synthetic peptide at 100 μM until adulthood
Experimental: FIG. 3. Illustrates an in vivo reduction in expanded CAG-RNA toxicity by feeding Drosophila fly lines that overexpress DsRedCAG100 RNA with synthetic Nucleolin P3 peptide. DsRedCAG0 (A-C) and DsRedCAG100 (D-F) F1 larvae were fed with 100 μM of NCL P3 peptide until adulthood. Representative images of rhabdomeres (light-sensing organelles in eyes) taken from 1 day-old adult flies are shown. The average number of rhabdomeres per ommatidium (single eye unit of the adult flies) is shown at the bottom left hand corner of each image, and “+/−” represents s.e.m. from 3 independent sets of experiments. “NCL P3WT” represents wildtype NCL P3 peptide while “NCL P3MTc” represents mutant c NCL P3 peptide.
DsRedCAG RNA was expressed in Drosophila fly eyes. DsRedCAG0 (FIGS. 3A-C) and DsRedCAG100 (FIGS. 3D-F) using a pseudopupil assay (Chan W M, et al. 2011). F1 larvae were fed with 100 μM of NCL P3 peptides until adulthood. The overexpression caused the integrity of the internal eye structure to deteriorate, as indicated by the reduced number of rhabdomeres which are subcellular organelles responsible for phototransduction (FIG. 3D). DsRedCAG100 larvae were fed with synthetic P3MTc (FIG. 3E) or P3 (FIG. 3F) peptide at 100 μM.

Substance | pre-45s rRNA transcription [1] | GRP78/BiP induction [2] | suppression of neurodegeneration in Drosophila polyQ disease model [3] | suppression of polyQ protein toxicity (polyQ protein toxicity) | disruption of the interaction between purified NCL and expanded CAG RNA, dose dependence ([4]; P3 at 10, 50, 100, 250, and 750 μM with NCL and CAG78 RNA (FIG. 1D)) | interference with the interaction between purified NCL and expanded CAG RNA ([4]; Ten μM of each peptide with purified GST-NCL and CAG78 RNA (FIG. 1C)) | suppression of DsRedCAG100 RNA toxicity (pseudopupil assay score) (DsRedCAG100 RNA toxicity)
S N W K W W P G I F D (SNWKWWPGIFD; synthetic polyQ-mediated toxicity inhibitor peptide QBP1) [reference compound] | restored pre-45s rRNA transcription | suppressed GRP78/BiP induction | substantial suppression | capable of suppressing polyQ protein toxicity both in vitro and in vivo | – | – | –
VPQNQNGKSKGYAF (synthetic nucleolin RNA recognition motif (RRM), RRM domain of nucleolin, RRM-related sequence core amino acid sequence P5) [Peptide P5] | – | – | – | – | able to interfere with the interaction between purified NCL and expanded CAG RNA | able to interfere with the interaction between purified NCL and expanded CAG RNA | –
DGKSKGIAAIEAK (synthetic nucleolin RNA recognition motif (RRM), RRM domain of nucleolin, RRM-related sequence core amino acid sequence P3MT5/MTc) [Peptide P3MT5] | did not demonstrate such suppressive effects | did not demonstrate such suppressive effects | – | – | – | – | did not exert any rescuing effect

Source: US9297798B2, “Therapeutic approach for polyglutamine degeneration” (The Chinese University of Hong Kong, priority 2013, dated 2016)
